Data on 1 molecule can be found in patent US20260364099A1, “GLYCYRRHIZIC ACID HYDROGELS” (KATHOLIEKE UNIVERSITEIT LEUVEN, priority 2023, published 2026).

One assay concerns Klebsiella pneumoniae. Nature of the assay: Growth inhibition evaluation (relative OD595). It counts as cell-based, Klebsiella pneumoniae ATCC13883. The settings on record: 50 mg/mL glycyrrhizic acid in solution or 0.5 mL/mL of 10 wt % hydrogel, 24 h, 37 °C. As for the experimental part: (§1) The growth inhibiting effect of 50 mg/mL glycyrrhizic acid in solution and 0.5 mL/mL of 10 wt % hydrogel C, corresponding with a total of 50 mg/mL of glycyrrhizic acid in the system are shown in grey bars with circles. Both are compared to suitable controls (shown in white bars with squares) i.e. growth media with an adjusted pH that is associated with the acidifying effect of glycyrrhizic acid in solution (pH 7.4) and hydrogel C (pH 4.6) but without the presence of glycyrrhizic acid in solution or hydrogel C, respectively. ns: p>0.05, ****p<0.0001. […]
(§2) Three different formulations of the glycyrrhizic acid hydrogels were made in dH2O: (i) Hydrogel C with pH=3, (ii) Hydrogel B with pH=3.8 and (iii) Hydrogel A with pH=4.2. pH was measured at 70 °C and varied using HCl or NaOH to acidify or alkalify the formulation to the desired pH-value. […]
(§3) To avoid evaporation, the plates were sealed using a membrane (Greiner Bio-one NV). After 24 hours of incubation (37 °C, 200 rpm), the OD595 was measured and relative OD595 was calculated by dividing the OD595 by the average OD595 of the growth control (=growth of cells in MHB without glycyrrhizic acid).

The test system of the next assay is Streptococcus. Put plainly: Antibacterial effect (no effect, bacteriostatic, bactericidal); growth inhibition followed by biocidal plating. The class given is cell-based, Streptococcus pyogenes LMG 14237. The settings on record: bactericidal = 3 LOG reduction compared to the inoculum. The method, then: (§4) The below table summarises the antibacterial effect (no effect, bacteriostatic, bactericidal) of the glycyrrhizic acid hydrogels on different pathogens tested.
The bactericidal effect of 0.5 mL/mL of 5 wt % hydrogel A (shown in grey bars with circles) is compared to growth medium with an adjusted pH (pH 5.2) that is associated with the acidifying effect of hydrogel A (shown in white bars with squares). ns: p>0.05, ****p<0.0001. […]
as §2
(§5) To avoid evaporation, the plates were sealed using a membrane (Greiner Bio-one NV). After 24 hours of incubation (37 °C, 200 rpm), the OD595 was measured and relative OD595 was calculated by dividing the OD595 by the average OD595 of the growth control (=growth of cells in MHB without glycyrrhizic acid). […]

In another assay the test system is E. faecalis. Put plainly: Growth inhibition evaluation (relative OD595). It counts as cell-based, Enterococcus faecalis LMG8148. The settings on record: 25 mg/mL glycyrrhizic acid in solution or 0.5 mL/mL of 5 wt % hydrogel, 24 h, 37 °C. The method, then:
(§6) The growth inhibiting effect of 25 mg/mL glycyrrhizic acid in solution and 0.5 mL/mL of 5 wt % hydrogel A, corresponding with a total of 25 mg/mL of glycyrrhizic acid in the system are shown in grey bars with circles. Both are compared to suitable controls (shown in white bars with squares) i.e. growth media with an adjusted pH that is associated with the acidifying effect of glycyrrhizic acid in solution (pH 7.4) and hydrogel A (pH 5.2) but without the presence of glycyrrhizic acid in solution or hydrogel A, respectively. ns: p>0.05, *p<0.05, **p<0.01, ****p<0.0001. […]
as §2, §3

In the next assay the test system is Klebsiella aerogenes. Put plainly: Growth inhibition evaluation (relative OD595). The class given is cell-based, Klebsiella aerogenes ATCC13048. The settings on record: 50 mg/mL glycyrrhizic acid in solution or 0.5 mL/mL of 10 wt % hydrogel, 24 h, 37 °C. As for the experimental part: as §1, §2, §3
The test system of assay [1] is Escherichia coli. The settings on record: cited from earlier work.
Another assay deals with Pseudomonas aeruginosa. Put plainly: Growth inhibition evaluation (relative OD595). It counts as cell-based, Pseudomonas aeruginosa LMG9009. The settings on record: 25 mg/mL glycyrrhizic acid in solution or 0.5 mL/mL of 5 wt % hydrogel, 24 h, 37 °C. The method, then:
The growth inhibiting effect of 25 mg/mL glycyrrhizic acid in solution and 0.5 mL/mL of 5 wt % hydrogel B, corresponding with a total of 25 mg/mL of glycyrrhizic acid in the system are shown in grey bars with circles. Both are compared to suitable controls (shown in white bars with squares) i.e. growth media with an adjusted pH that is associated with the acidifying effect of glycyrrhizic acid in solution (pH 7.4) and hydrogel B (pH 5) but without the presence of glycyrrhizic acid in solution or hydrogel B, respectively. ns: p>0.05, ****p<0.0001. […]
as §2, §3

A further assay has as its system MRSA. Nature of the assay: Growth inhibition evaluation (relative OD595). The class given is cell-based, methicillin resistant S. aureus (MRSA), clinical isolate. The note with it: 25 mg/mL glycyrrhizic acid in solution or 0.5 mL/mL of 5 wt % hydrogel, 24 h, 37 °C. As for the experimental part:
as §6, §2, §3

Assay [2] relates to Escherichia coli. Nature of the assay: Growth inhibition evaluation (relative OD595). It counts as cell-based, Escherichia coli UTI89. The note with it: 50 mg/mL glycyrrhizic acid in solution or 0.5 mL/mL of 10 wt % hydrogel, 24 h, 37 °C. As for the experimental part: as §1, §2, §3
A further assay deals with Enterococcus. Put plainly: Antibacterial effect (no effect, bacteriostatic, bactericidal); growth inhibition followed by biocidal plating. It counts as cell-based, Enterococcus faecalis LMG8148. The settings on record: bactericidal = 3 LOG reduction compared to the inoculum. As for the experimental part: as §4
The bactericidal effect of 0.5 mL/mL of 10 wt % hydrogel C (shown in grey bars with circles) is compared to growth medium with an adjusted pH (pH 4.6) that is associated with the acidifying effect of hydrogel C (shown in white bars with squares). ****p<0.0001. […]
as §2, §5

A further assay has as its system Acinetobacter baumanni. Put plainly: Growth inhibition evaluation (relative OD595). The settings on record: 25 mg/mL glycyrrhizic acid in solution or 0.5 mL/mL of 5 wt % hydrogel, 24 h, 37 °C. It counts as cell-based, Acinetobacter baumannii RD5SR3. The method, then: as §6, §2, §3
In a further assay the test system is Streptococci. The note with it: cited from earlier work.
In another assay the test system is S. pyogenes. Nature of the assay: Growth inhibition evaluation (relative OD595). The class given is cell-based, Streptococcus pyogenes LMG 14237. The method, then: The glycyrrhizic acid concentration is calculated based on the percentage of glycyrrhizic acid in the gel and the amount of this gel used in the assay. Note that the pH at the gel surface is lower than the initial pH of the growth medium on top of the gel due to the acidifying effect of the hydrogel. This pH difference is dependent of the pH of the hydrogel, the percentage of glycyrrhizic acid in the hydrogel and the amount of hydrogel used. The different hydrogels are indicated by color: white circles represent the hydrogel A, grey circles represent hydrogel B and black circles represent the hydrogel C. The 2 grey dots at pH 7.0 in the plot represent the (lack of) activity of glycyrrhizic acid in solution. Of all nine pathogens tested, only Streptococcus pyogenes was inhibited by 50 mg/mL glycyrrhizic acid in solution.
The growth inhibiting effect of 25 mg/mL glycyrrhizic acid in solution and 0.5 mL/mL of 5 wt % hydrogel A, corresponding with a total of 25 mg/mL of glycyrrhizic acid in the system are shown in grey bars with circles. […]
as §2

A further assay has as its system Proteus vulgaris. The settings on record: cited from earlier work.
For assay [3], the system named is Staphylococcus epidermidis. Nature of the assay: Growth inhibition evaluation (relative OD595). It counts as cell-based, clinical isolate. The settings on record: 25 mg/mL glycyrrhizic acid in solution or 0.5 mL/mL of 5 wt % hydrogel, 24 h, 37 °C. As for the experimental part:
as §6, §2, §3

The next assay has as its system Candida albicans. The settings on record: cited from earlier work.

The structures appear in SMILES notation.

As to `CC1(C)[C@@H](O[C@H]2O[C@H](C(=O)O)[C@@H](O)[C@H](O)[C@H]2O[C@@H]2O[C@H](C(=O)O)[C@@H](O)[C@H](O)[C@H]2O)CC[C@]2(C)[C@H]3C(=O)C=C4[C@@H]5C[C@@](C)(C(=O)O)CC[C@]5(C)CC[C@@]4(C)[C@]3(C)CC[C@@H]12` [glycyrrhizic acid], the growth inhibiting activity entry with Klebsiella pneumoniae, in the assay on E. faecalis, in the assay with Klebsiella aerogenes, with Pseudomonas aeruginosa, with MRSA and with Escherichia coli [2] was “lack of/limited growth inhibiting activity” each time. Moreover, the growth inhibiting activity entry is on record as “lack of/limited growth inhibiting activity” in the assay with Acinetobacter baumanni; “lack of/limited growth inhibiting activity” with S. pyogenes (S. pyogenes, 25 mg/mL glycyrrhizic acid in solution or 0.5 mL/mL of 5 wt % hydrogel, 24 h, 37 °C); “lack of/limited growth inhibiting activity” in assay [3]. Besides, the “antibacterial effect (no effect, bacteriostatic, bactericidal)” value with Streptococcus is “Bacterio-”; with Enterococcus, “No effect”. For the same molecule, the “antibacterial potential in solution” value in the assay with Escherichia coli [1], with Streptococci, with Proteus vulgaris and in the assay on Candida albicans was “lack of activity” each time. Moreover, in the assay with S. pyogenes (50 mg/mL glycyrrhizic acid in solution, only Streptococcus pyogenes of nine pathogens), the “complete growth inhibition (FIG. 1)” value is recorded as “inhibited”.
